From ChEMBL document CHEMBL1201862, “PubChem BioAssay data set” (2004)
Calls of active or inactive are those of the source.

How the values were obtained:
[1] = inhibitors of cytokine-induced nitrite release, dose response, cell-based, Griess absorbance, INS-1E, dry powder, set 3 (AID 488870); format: functional; conditions: Rattus norvegicus
INS1 [2] = experiment: inhibitors of cytokine-induced nitrite release, dose response, cell-based, Griess absorbance, INS-1E, dry powder (AID 488866); format: functional; conditions: Rattus norvegicus
INS1 [3] = experiment: inhibitors of cytokine-induced nitrite release, dose response, cell-based, Griess absorbance, INS-1E, dry powder, set 2 (AID 488868); format: functional; conditions: Rattus norvegicus
INS1 [4] = experiment: protection of INS-1E cells from cytokine death, dose response, ATP luminescence, dry powder (AID 488844); format: functional, cell-based; conditions: Rattus norvegicus
INS1 [5] = experiment: protection from cytokine-driven beta-cell apoptosis, dose response, JC-1 fluorescence, INS-1E, dry powder, set 2 (AID 488867); format: functional, cell-based; conditions: Rattus norvegicus
INS1 [6] = experiment: protection from cytokine-induced mitochondrial depolarization, dose response, cell-based, INS-1E, JC-1 fluorescence ratio, dry powder (AID 488931); format: functional; conditions: Rattus norvegicus
Phospholipase D1 = Phospholipase D1 (Homo sapiens, UniProt Q13393); experiment: PLD1 inhibitor potency in cells, dose response (AID 602151); format: functional;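 also: cellular PLD1 assay in Calu-1 cells stimulated with PMA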
Phospholipase D2 = Phospholipase D2 (Homo sapiens, UniProt O14939); experiment: PLD2 inhibitor potency in cells, dose response (AID 602147); format: functional;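 also: cellular assay in HEK293 cells overexpressing GFP-tagged PLD2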
[7] = A cell-based HTS for delayed death inhibitors of the malarial parasite plastid Measured in Microorganism System Using Plate Reader - 2126-02_Inhibitor_Dose_DryPowder_Activity.; format: functional, organism-based
[8] = A cell-based HTS for delayed death inhibitors of the malarial parasite plastid Measured in Microorganism System Using Plate Reader - 2126-01_Inhibitor_Dose_DryPowder_Activity.; format: functional, organism-based
[9] = Vero cell cytotoxicity, dose response, cytotoxicity control for M. tuberculosis growth inhibitor project, Vero cells, purified and synthesized compounds, set 4 (AID 504854); format: functional; conditions: Mycobacterium tuberculosis
[10] = molecular target: Protein kinase C delta type (Homo sapiens, UniProt Q05655); format: functional
[11] = molecular target: Calcium/calmodulin-dependent protein kinase type II subunit gamma (Homo sapiens, UniProt Q13555); format: functional
[12] = molecular target: Serine/threonine-protein kinase PAK 1 (Homo sapiens, UniProt Q13153); format: functional
[13] = molecular target: Calcium/calmodulin-dependent protein kinase type II subunit delta (Homo sapiens, UniProt Q13557); format: functional
[14] = molecular target: Casein kinase I isoform alpha (Homo sapiens, UniProt P48729); format: functional
[15] = molecular target: Serine/threonine-protein kinase TAO1 (Homo sapiens, UniProt Q7L7X3); format: functional
[16] = molecular target: Casein kinase I isoform delta (Homo sapiens, UniProt P48730); format: functional;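 also: measured as one member (CSNK1D) of a kinome panel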
[17] = molecular target: Calcium/calmodulin-dependent protein kinase type II subunit beta (Homo sapiens, UniProt Q13554); format: functional
[18] = molecular target: Latent membrane protein 1 (Human herpesvirus 4 (strain B95-8), UniProt P03230); experiment: TES1-eGFP NF-kB reporter inhibition versus Tet-On dsRED, dose response, selectivity assay for LMP1 NF-kB inhibitor project, imaging, HEK293T, dual-color eGFP/dsRED, cherry-picks (AID 588398); format: functional, cell-based
Aurora kinase A = Aurora kinase A (Homo sapiens, UniProt O14965); format: functional;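 also: value from the Navigating the Kinome kinase panel profiling, panel entry STK6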
[19] = molecular target: Vascular endothelial growth factor receptor 2 (Homo sapiens, UniProt P35968); format: functional
Aurora kinase B = Aurora kinase B (Homo sapiens, UniProt Q96GD4); format: functional

Calcium/calmodulin-dependent protein kinase type II subunit delta, sequence (Q13557 whole entry, canonical isoform): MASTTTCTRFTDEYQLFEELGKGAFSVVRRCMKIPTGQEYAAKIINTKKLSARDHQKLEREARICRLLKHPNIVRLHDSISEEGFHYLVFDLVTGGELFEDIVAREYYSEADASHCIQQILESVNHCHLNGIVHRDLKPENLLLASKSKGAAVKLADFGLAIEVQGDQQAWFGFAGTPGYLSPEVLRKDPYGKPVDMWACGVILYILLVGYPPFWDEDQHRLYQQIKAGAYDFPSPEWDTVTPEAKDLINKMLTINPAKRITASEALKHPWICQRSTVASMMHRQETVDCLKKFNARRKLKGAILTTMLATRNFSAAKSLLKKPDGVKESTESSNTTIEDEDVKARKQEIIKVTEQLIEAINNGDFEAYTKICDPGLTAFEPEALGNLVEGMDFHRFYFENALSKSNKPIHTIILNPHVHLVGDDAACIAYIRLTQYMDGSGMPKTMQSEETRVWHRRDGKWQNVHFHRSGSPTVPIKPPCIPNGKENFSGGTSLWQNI
Aurora kinase A, sequence (O14965 whole entry): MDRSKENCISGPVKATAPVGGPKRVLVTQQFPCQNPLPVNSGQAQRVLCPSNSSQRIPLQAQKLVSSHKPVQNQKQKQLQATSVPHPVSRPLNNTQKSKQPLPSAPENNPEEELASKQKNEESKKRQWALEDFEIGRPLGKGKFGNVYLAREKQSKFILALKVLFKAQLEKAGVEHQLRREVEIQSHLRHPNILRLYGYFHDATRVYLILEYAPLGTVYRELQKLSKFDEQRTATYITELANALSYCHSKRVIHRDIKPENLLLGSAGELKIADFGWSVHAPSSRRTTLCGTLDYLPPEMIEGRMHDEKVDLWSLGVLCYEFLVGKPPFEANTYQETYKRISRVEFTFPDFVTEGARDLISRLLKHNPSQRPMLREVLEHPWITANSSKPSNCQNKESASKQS
Casein kinase I isoform alpha, sequence (P48729 whole entry, canonical isoform): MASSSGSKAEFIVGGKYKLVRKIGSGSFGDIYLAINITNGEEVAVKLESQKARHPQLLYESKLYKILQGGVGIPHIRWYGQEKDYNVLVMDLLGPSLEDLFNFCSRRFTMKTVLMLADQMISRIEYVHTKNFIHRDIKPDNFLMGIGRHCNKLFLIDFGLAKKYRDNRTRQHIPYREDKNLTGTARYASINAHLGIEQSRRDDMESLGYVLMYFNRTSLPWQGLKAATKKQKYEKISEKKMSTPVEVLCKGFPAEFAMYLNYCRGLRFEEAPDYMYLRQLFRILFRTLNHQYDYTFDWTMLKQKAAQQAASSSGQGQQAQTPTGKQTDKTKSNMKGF
Vascular endothelial growth factor receptor 2, sequence (P35968 whole entry): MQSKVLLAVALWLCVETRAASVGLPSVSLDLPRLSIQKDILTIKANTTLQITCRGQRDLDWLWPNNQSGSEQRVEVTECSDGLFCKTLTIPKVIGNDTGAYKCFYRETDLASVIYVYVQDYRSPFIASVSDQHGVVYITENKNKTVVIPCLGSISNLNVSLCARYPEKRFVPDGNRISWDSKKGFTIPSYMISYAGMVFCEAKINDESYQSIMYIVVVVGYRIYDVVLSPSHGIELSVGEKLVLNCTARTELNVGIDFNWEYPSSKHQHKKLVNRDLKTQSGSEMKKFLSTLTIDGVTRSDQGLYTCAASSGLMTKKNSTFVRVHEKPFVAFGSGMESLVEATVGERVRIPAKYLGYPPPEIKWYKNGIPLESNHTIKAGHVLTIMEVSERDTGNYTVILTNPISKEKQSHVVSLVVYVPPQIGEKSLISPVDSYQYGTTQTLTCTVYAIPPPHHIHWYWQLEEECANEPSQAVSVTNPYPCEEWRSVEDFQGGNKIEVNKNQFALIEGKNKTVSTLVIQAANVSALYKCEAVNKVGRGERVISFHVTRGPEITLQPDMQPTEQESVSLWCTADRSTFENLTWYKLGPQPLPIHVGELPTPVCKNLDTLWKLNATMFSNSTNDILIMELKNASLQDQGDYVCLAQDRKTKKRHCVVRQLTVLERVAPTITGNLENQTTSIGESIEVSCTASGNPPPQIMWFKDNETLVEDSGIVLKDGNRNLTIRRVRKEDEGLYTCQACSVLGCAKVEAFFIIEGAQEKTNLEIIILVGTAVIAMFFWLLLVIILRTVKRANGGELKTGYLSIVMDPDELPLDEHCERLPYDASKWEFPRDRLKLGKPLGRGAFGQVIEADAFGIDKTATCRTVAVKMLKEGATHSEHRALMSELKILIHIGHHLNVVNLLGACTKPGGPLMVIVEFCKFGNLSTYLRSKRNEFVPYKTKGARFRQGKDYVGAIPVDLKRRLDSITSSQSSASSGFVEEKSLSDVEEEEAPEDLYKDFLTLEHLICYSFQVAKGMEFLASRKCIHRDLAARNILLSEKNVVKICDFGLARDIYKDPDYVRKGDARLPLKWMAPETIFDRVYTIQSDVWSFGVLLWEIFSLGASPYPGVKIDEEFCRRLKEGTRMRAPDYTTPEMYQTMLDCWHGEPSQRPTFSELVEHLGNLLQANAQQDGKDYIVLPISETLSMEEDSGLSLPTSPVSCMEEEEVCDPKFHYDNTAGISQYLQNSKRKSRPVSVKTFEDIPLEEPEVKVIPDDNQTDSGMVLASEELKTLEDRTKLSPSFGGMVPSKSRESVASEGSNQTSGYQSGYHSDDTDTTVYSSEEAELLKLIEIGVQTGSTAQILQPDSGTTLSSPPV
Latent membrane protein 1, sequence (P03230 whole entry): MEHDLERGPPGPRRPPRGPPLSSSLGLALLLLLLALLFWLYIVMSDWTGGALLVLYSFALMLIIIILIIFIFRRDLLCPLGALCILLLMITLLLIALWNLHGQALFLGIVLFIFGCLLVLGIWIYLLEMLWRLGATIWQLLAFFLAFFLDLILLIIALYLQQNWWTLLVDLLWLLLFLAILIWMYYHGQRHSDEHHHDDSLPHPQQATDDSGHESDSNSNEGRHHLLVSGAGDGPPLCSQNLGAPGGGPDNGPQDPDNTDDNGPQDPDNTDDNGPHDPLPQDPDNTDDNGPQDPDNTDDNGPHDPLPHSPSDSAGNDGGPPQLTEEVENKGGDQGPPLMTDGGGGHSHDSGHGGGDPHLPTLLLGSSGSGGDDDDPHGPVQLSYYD
Casein kinase I isoform delta, sequence (P48730 whole entry, canonical isoform): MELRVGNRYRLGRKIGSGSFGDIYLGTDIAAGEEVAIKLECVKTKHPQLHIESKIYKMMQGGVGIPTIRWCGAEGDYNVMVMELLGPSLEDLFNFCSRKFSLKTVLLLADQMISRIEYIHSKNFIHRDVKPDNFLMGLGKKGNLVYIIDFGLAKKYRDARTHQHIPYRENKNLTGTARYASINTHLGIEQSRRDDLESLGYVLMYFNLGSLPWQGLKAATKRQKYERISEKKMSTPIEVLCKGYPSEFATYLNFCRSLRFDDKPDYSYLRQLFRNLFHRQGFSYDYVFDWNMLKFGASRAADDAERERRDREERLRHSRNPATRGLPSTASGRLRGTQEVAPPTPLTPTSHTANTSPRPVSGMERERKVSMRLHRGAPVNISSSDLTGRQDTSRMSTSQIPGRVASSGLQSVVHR
Phospholipase D2, sequence (O14939 whole entry): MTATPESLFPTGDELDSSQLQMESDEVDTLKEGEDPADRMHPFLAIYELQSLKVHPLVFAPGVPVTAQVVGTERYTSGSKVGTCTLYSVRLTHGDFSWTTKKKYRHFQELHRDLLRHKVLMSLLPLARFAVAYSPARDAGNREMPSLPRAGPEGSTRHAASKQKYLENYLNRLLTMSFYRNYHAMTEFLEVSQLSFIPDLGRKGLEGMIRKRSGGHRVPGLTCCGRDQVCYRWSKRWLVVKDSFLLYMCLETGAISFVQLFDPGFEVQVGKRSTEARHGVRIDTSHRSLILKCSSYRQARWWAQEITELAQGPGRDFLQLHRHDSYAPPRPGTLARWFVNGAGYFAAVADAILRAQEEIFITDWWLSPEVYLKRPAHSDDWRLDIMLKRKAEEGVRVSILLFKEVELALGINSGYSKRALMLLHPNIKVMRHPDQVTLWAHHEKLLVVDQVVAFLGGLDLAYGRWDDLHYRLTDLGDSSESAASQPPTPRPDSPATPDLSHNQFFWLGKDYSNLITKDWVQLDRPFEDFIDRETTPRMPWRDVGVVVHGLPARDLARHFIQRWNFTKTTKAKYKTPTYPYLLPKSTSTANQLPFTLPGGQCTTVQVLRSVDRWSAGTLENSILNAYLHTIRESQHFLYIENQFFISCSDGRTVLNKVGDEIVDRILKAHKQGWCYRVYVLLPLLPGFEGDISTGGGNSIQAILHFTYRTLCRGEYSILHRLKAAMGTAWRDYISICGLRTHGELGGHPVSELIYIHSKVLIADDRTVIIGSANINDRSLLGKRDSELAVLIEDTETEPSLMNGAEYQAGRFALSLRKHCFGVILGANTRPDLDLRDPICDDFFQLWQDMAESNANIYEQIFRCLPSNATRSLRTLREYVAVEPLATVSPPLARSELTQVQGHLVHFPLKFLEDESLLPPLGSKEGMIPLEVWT
Serine/threonine-protein kinase PAK 1, sequence (Q13153 whole entry): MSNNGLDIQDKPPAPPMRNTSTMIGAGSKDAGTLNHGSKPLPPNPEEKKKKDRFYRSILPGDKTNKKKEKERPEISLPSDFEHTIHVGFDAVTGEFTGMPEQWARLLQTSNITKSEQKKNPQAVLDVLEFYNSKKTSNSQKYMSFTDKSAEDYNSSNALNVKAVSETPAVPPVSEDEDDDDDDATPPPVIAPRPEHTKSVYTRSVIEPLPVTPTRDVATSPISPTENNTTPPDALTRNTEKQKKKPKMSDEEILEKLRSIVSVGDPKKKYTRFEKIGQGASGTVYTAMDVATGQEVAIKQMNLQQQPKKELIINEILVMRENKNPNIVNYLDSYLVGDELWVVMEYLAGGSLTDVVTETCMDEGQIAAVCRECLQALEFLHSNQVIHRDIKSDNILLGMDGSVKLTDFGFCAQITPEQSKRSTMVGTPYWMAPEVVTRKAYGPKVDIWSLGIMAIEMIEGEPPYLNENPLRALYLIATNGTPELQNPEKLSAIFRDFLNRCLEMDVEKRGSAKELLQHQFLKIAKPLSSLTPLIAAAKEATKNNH

Question: Which AC50 [1] does the source give for `C[C@@H]1CN([C@@H](C)CO)C(=O)c2cccc(NC(=O)Nc3cccc4ccccc34)c2O[C@H]1CN(C)S(=O)(=O)c1cccc(F)c1` here?
Answer: 22.9 µM (active)

Question: What about the AC50 (INS1 [2]) of the same molecule?
Answer: 32.1 µM (active)

Question: What about the AC50 (INS1 [3]) of the same molecule?
Answer: 29.6 µM (active)

Question: For `C[C@@H]1CN([C@@H](C)CO)C(=O)c2cccc(NC(=O)Nc3cccc4ccccc34)c2O[C@H]1CN(C)S(=O)(=O)c1ccc2c(c1)OCC2`, which AC50 (INS1 [4]) is on record?
Answer: 67.9 µM (active)

Question: What about the AC50 [1] of the same molecule?
Answer: 25.2 µM (active)

Question: What about the AC50 (INS1 [5]) of the same molecule?
Answer: 29.8 µM (active)

Question: What about the AC50 (INS1 [6]) of the same molecule?
Answer: > 195 µM (inactive)

Question: Which results are given for `C[C@@H](CN1CCC(n2c(=O)[nH]c3ccccc32)CC1)NC(=O)CCc1ccc(F)cc1`?
Answer: IC50 (Phospholipase D1): 0.26 µM (active); IC50 (Phospholipase D2): 9 µM (active)

Question: Which AC50 [7] does the source give for `C[C@@H]1CN([C@@H](C)CO)C(=O)c2cc(NC(=O)Nc3ccccc3)ccc2O[C@@H](C)CCCCO[C@H]1CN(C)C(=O)OC(C)(C)C` here?
Answer: 1.37 µM (active)

Question: And the AC50 [8]?
Answer: 2.41 µM (active)

Question: Which CC50 [9] does the source give for `CCC(Sc1nc2ccccc2c(=O)[nH]1)C(=O)Nc1cccc(OC)c1` (centres undefined) here?
Answer: > 100 µM (active)

Question: Which results are given for `CCCCOc1ccccc1CCc1cccc2nc(N)nc(N)c12`?
Answer: Ki [10]: 5.01 µM (active); Ki [11]: 3.16 µM (active); Ki [12]: 3.16 µM (active); Ki [13]: 5.01 µM (active); Ki [14]: 1.58 µM (active); Ki [15]: 10 µM (active); Ki [16]: 3.98 µM (active); Ki [17]: 2.51 µM (active)

Question: Which AC50 [18] does the source give for `Cc1ccc(/C=N/NC(=O)c2cc(-c3ccccc3)nc3ccccc23)o1` here?
Answer: 27.2 µM (active)

Question: What does the source list for `COc1cc(-c2ccc3c(c2)Nc2cc(OCCCCO)c(OC)cc2NC3=O)ccc1O`?
Answer: Ki (Aurora kinase A): 1.26 µM (active); Ki [19]: 3.98 µM (active); Ki (Aurora kinase B): 1.58 µM (active)
